Measured values reported in patent publication US9572882B2, “Compositions and methods for improving cardiovascular function” (RiboCor, INC., priority 2000, dated 2017).
Entries after “also recorded” stand apart in the source; their conditions may differ. Like-named read-outs stand apart in the source and are kept apart here.

Key:
plasma homocysteine = conditions: cited from earlier work
congestive heart failure = conditions: 4 weeks of supplementation (Azuma et al 1983); cited from earlier work
[1] = test system: patients with chronic coronary artery disease and chronic heart failure; test: Quality of life (SF 36 form) and physical function in the crossover study; format: in vivo, human; conditions: oral, 5 g three times a day for three weeks
Excerpt: A double-blinded, randomized, crossover clinical study was initiated to determine whether patients with cardiovascular disease could find a ribose benefit at lower, safer doses. Patients with known chronic coronary artery disease with stable angina pectoris and chronic heart failure, class II and III (New York Classification, NYHA) were selected for the study. […] All patients were being treated with nitrates, molsidim and beta blockers. Three patients were also on diltiazem and an additional three on trapidil. Medications were not altered during the study. Exclusion criteria included patients <18 years of age, those with severe concurrent disease (renal failure, diabetes mellitus, neoplasia), evidence of hyperthyroidism and inability to follow the protocol. The study consisted of two treatment periods, three weeks in duration. Initially, either ribose or placebo (dextrose) was administered three times a day with meals. […] Measured objectives parameters of systolic and diastolic function were assessed with transthoracic echocardiography. Subjectively, quality of life using the SF36 form, and physical function (exercise tolerance) were assessed. All of the above parameters were assessed at pre- and post-treatment in both arms of the study. Quality of life was assessed in each patient using the SF 36 form. […]

[2] = test system: patients with chronic coronary artery disease and chronic heart failure; test: Semi-upright bicycle exercise test in the crossover study; format: in vivo, human; conditions: beginning vs end of the treatment period
Excerpt: A double-blinded, randomized, crossover clinical study was initiated to determine whether patients with cardiovascular disease could find a ribose benefit at lower, safer doses. Patients with known chronic coronary artery disease with stable angina pectoris and chronic heart failure, class II and III (New York Classification, NYHA) were selected for the study. […] All patients were being treated with nitrates, molsidim and beta blockers. Three patients were also on diltiazem and an additional three on trapidil. Medications were not altered during the study. Exclusion criteria included patients <18 years of age, those with severe concurrent disease (renal failure, diabetes mellitus, neoplasia), evidence of hyperthyroidism and inability to follow the protocol. The study consisted of two treatment periods, three weeks in duration. Initially, either ribose or placebo (dextrose) was administered three times a day with meals. Five grams of either ribose of or placebo was dissolved in approximately eight ounces of fluid shortly before administration. Following the initial treatment period, the patients were given no ribose or placebo treatment for one week as a washout period. […] Rate pressure product (RPP) was calculated using systolic blood pressure times heart rate and expressed in RPP units.

[3] = test system: patients with chronic coronary artery disease with stable angina pectoris and chronic heart failure, class II and III; test: Transthoracic echocardiography in double-blinded, randomized, crossover clinical study of ribose vs placebo; format: in vivo, human; conditions: oral
Excerpt: A double-blinded, randomized, crossover clinical study was initiated to determine whether patients with cardiovascular disease could find a ribose benefit at lower, safer doses. Patients with known chronic coronary artery disease with stable angina pectoris and chronic heart failure, class II and III (New York Classification, NYHA) were selected for the study. […] All patients were being treated with nitrates, molsidim and beta blockers. Three patients were also on diltiazem and an additional three on trapidil. Medications were not altered during the study. Exclusion criteria included patients <18 years of age, those with severe concurrent disease (renal failure, diabetes mellitus, neoplasia), evidence of hyperthyroidism and inability to follow the protocol.
The study consisted of two treatment periods, three weeks in duration. Initially, either ribose or placebo (dextrose) was administered three times a day with meals. Five grams of either ribose of or placebo was dissolved in approximately eight ounces of fluid shortly before administration. Following the initial treatment period, the patients were given no ribose or placebo treatment for one week as a washout period. The patients were then given the alternate treatment for three weeks for the crossover phase of the study.
Measured objectives parameters of systolic and diastolic function were assessed with transthoracic echocardiography. Subjectively, quality of life using the SF36 form, and physical function (exercise tolerance) were assessed. All of the above parameters were assessed at pre- and post-treatment in both arms of the study.
Each echocardiographic assessment was performed by the same clinical individual and accumulated data were analyzed by two cardiologists in a blinded manner, with a consensus establishing a final result. All studies were conducted with commercially available equipment (System V, GE, Norway). To allow off-line quantitative analysis of the echocardiographic data, studies were recorded on videotape with selected cine-loops and velocity spectra digitally transferred to a Macintosh G4 computer (Apple Computers, CA) for subsequent analysis. Software provided by the manufacturer (Echopac®, GE, Norway) was used for data evaluation.
Each echocardiographic assessment was performed transthoracically and a 1.7/3.4 MHZ harmonic transducer was used with the patient examined in the left lateral decubitus position. A one-lead electrocardiogram was recorded continuously during echocardiographic assessment. The M-Mode left atrial dimension was measured at end-systole in the parasternal long-axis view and left ventricular ejection fraction was determined according to the recommendations of the North American Society of Echocardiography. In addition, left atrial volume was determined using the Simpson's rule in the 4 chamber view. Transmitral Doppler inflow velocities were recorded from the apical four-chamber view with the sample volume positioned between the tips of the mitral leaflets during quiet respiration.
The parameters derived from the transmitral velocity spectra were: peak velocity of the early (E) and atrial filling (A) waves, the corresponding velocity time integrals (VTIE and VTIA and the percentage of atrial contribution to total left ventricular filling. The deceleration slope of the E wave was also measured. The percentage of atrial contribution to total left ventricular filling was determined by dividing the VTIA by the total diastolic velocity time integral. The results of five consecutive heart cycles were averaged in each patient to obtain a justified value.
Analysis of variance for repeated measures (ANOVA) was used for the analysis of serial changes of continuous parameters within and between the randomized, assigned treatment arms, i.e. ribose vs placebo. Further comparison were subject to Bonferroni correction. In all cases, a p value s 0.05 was considered statistically significant.

[4] = test system: subject with borderline blood pressure; test: Blood pressure in one subject with borderline hypertension given ribose; format: in vivo, human
Excerpt: As shown in Example 1, treatment with ribose improves diastolic cardiac function. Since hypertension is accompanied by left ventricular dysfunction, it is expected that the administration of ribose to patients experiencing hypertension with result in a benefit. One subject has been tested. Their blood pressure has been tested at borderline values of 130/90. Following daily administration of ribose at 5-10 grams per day, their blood pressure was lowered to as low as 108/78.

[5] = test system: patients with cardiovascular disease; athletes; conditions: cited from earlier work
[6] = test system: patients with heart failure; patients with angina; conditions: cited from earlier work
[7] = 5 g three times a day for three weeks
[8] = 5 g three times a day for three weeks, p ≦ .005 vs dextrose placebo

Nc1nc2ncc(CNc3ccc(C(=O)N[C@@H](CCC(=O)O)C(=O)O)cc3)nc2c(=O)[nH]1 [Folic acid]
reduction of plasma homocysteine levels (plasma homocysteine; 250 pg/d dose (Brouwer et al. 1999)): 11% | reduction of plasma homocysteine levels (plasma homocysteine; 300 pg/d in healthy individuals over 5 weeks (Mansoor)): 20% | reduction of plasma homocysteine (plasma homocysteine; 300 pg/day plus 120 mg/day of vitamin B6 (Mansoor)): 32% | reduction of plasma homocysteine levels (plasma homocysteine; 500 pg/d dose (Brouwer et al. 1999)): 22%

NCCS(=O)(=O)O [taurine]
dyspnea, palpitation, crackles, edema, and New York Heart Association functional class (congestive heart failure): highly significant improvement

O=C[C@H](O)[C@H](O)[C@H](O)CO [Ribose, D-Ribose]
overall score of the quality of life index ([1]; SF 36 form): significant improvement; also recorded: enhanced | physical function [1]: significant improvement | mean maximal attained exercise level [2]: not changed | atrial contribution to left ventricular filling as compared to placebo [3, 7]: higher | deceleration time of the E wave as compared to placebo [3, 7]: significant shorter | ejection fraction (EF) [3, 7]: 51.0 ± 7.3% | left atria volume as compared to placebo [3, 7]: significantly smaller | atrial contribution (Ac) ([3]; 5 g three times a day for three weeks, p < .01 vs dextrose placebo): 45.3 ± 9.2 & | deceleration time of the E wave (Edc) [3, 8]: 193.5 ± 45.9 ms | left ventricular systolic volume (LVVs) [3, 8]: 64.4 ± 24.8 mL | stroke volume index (SVI) [3, 8]: 2.63 ± .57 ml/body mass index | diastolic cardiac function ([3]; relatively short term, severe coronary artery disease and congestive heart failure): significantly improved | pressure-lowering effects in further studies ([4]; further studies, expected): expected to confirm the pressure-lowering effects | blood pressure after ribose ([4]; one subject, borderline values of 130/90 before, 5-10 grams per day daily): 108/78 | benefit to patients with cardiovascular disease ([5]; 60 grams daily in four 15 gram doses for three days (Pliml 1992)): benefited | side effects ([5]; 60 grams daily in four 15 gram doses): hypoglycemia with concomitant dizziness, nausea and sweating; also recorded: abdominal distress and diarrhea | treadmill performance of angina patients ([5]; orally administered high doses (Pliml et al 1992)): increased | power output of athletes on exercise bikes ([5]; supplemental ribose (U.S. Pat. No. 6,159,942)): greater

N=C(N)NCCC[C@H](N)C(=O)O [arginine, L-arginine]
benefits for patients with heart failure ([6]; 5.6 to 12.6 g/day supplemental (Rector et al 1996)): increased blood flow, increased distances in a 6-minute walk test, and improved arterial compliance | exercise capacity in patients with angina ([6]; oral, 6 g/day for 3 days (Ceremuzynski et al 1997)): improved
